Source: PubChem BioAssay AID624361 (Broad Institute, 2012)
Results filed as inconclusive are left out. Activity calls are given as the source filed them. How the calls were made is not given here.

Assay: LMP1-induced NF-kB luciferase signal inhibition – cell-based, EBV LMP1, dry powder, set 2, dose response (AID 624361)
Details: LMP1-induced NF-kappaB luciferase reporter cells, luminescence; at 35 µM (top of the series)

**Q.** Which activity change, negative = inhibition does the source give for `C[C@@H](NC(=O)C[C@@H]1C=C[C@H](NC(=O)Cc2ccccn2)[C@H](CO)O1)c1ccccc1` here?
**A.** -1.52% (inactive)

**Q.** For `C[C@@H]1CN([C@@H](C)CO)C(=O)Cc2cc(NC(=O)Cc3ccccc3)ccc2O[C@@H]1CN(C)Cc1ccc(C(F)(F)F)cc1`, which activity change, negative = inhibition is on record?
**A.** -12.6% (inactive)

**Q.** For `C[C@@H](NC(=O)C[C@H]1C=C[C@@H](NC(=O)Cc2ccccn2)[C@H](CO)O1)c1ccccc1`, which activity change, negative = inhibition is on record?
**A.** -5.56% (inactive)

**Q.** Which activity change, negative = inhibition does the source give for `C[C@@H]1CN([C@H](C)CO)C(=O)c2c(c3ccccc3n2C)-c2ccccc2CO[C@H]1CN(C)C(=O)Nc1ccc(F)cc1` here?
**A.** -3.16% (inactive)

**Q.** Which activity change, negative = inhibition does the source give for `C[C@H](NC(=O)C[C@H]1C=C[C@H](NC(=O)Cc2ccccn2)[C@H](CO)O1)c1ccccc1` here?
**A.** 5.47% (inactive)

**Q.** For `Cc1noc(C)c1S(=O)(=O)Nc1ccc2c(c1)C(=O)N([C@H](C)CO)C[C@@H](C)[C@@H](CN(C)Cc1ccc(C(F)(F)F)cc1)OCCCC[C@@H](C)O2`, which activity change, negative = inhibition is on record?
**A.** 1.95% (inactive)

**Q.** For `CO[C@@H]1CN(C)C(=O)c2ccc(NC(C)=O)cc2OC[C@@H](C)N(Cc2ccccc2F)C[C@H]1C`, which activity change, negative = inhibition is on record?
**A.** 0.476% (inactive)

**Q.** For `C[C@H]1CN([C@@H](C)CO)C(=O)Cc2cc(NC(=O)Cc3ccccc3)ccc2O[C@@H]1CN(C)Cc1ccc(C(F)(F)F)cc1`, which activity change, negative = inhibition is on record?
**A.** -12.8% (inactive)

**Q.** For `O=C(Cc1ccccn1)NCC[C@@H]1CC[C@H](NC(=O)Nc2ccc(Cl)cc2)[C@H](CO)O1`, which activity change, negative = inhibition is on record?
**A.** -5.88% (inactive)

**Q.** For `C[C@@H]1CN([C@H](C)CO)C(=O)Cc2cc(NC(=O)Cc3ccccc3)ccc2O[C@H]1CN(C)Cc1ccc(C(F)(F)F)cc1`, which activity change, negative = inhibition is on record?
**A.** -9.16% (inactive)

**Q.** Which activity change, negative = inhibition does the source give for `C[C@H](NC(=O)C[C@@H]1C=C[C@H](NC(=O)Cc2ccccn2)[C@@H](CO)O1)c1ccccc1` here?
**A.** -0.999% (inactive)

**Q.** Which activity change, negative = inhibition does the source give for `O=C(Cc1ccccn1)NCC[C@@H]1CC[C@@H](NC(=O)Nc2ccc(Cl)cc2)[C@H](CO)O1` here?
**A.** 10.1% (inactive)

**Q.** With `C[C@@H](NC(=O)C[C@H]1C=C[C@H](NC(=O)Cc2ccccn2)[C@H](CO)O1)c1ccccc1` as the compound, how does the activity change, negative = inhibition read?
**A.** 9.56% (inactive)
